These are literature values, as cited in patent US11045444B2, “Composition and method for promoting eyelash and eyebrow growth exclusively containing naturally sourced ingredients” (Plume Cosmetics Inc., priority 2016, dated 2021).

Turning to `C=C[C@@]1(C)CC(=O)[C@]2(O)[C@@]3(C)[C@@H](O)CCC(C)(C)[C@@H]3[C@H](O)[C@H](OC(C)=O)[C@@]2(C)O1` [forskolin], the solubility in water result is reported as “approximately 0.001%”.
